Assays:
Test in all cases: ethoxyresorufin-O-deethylase fluorescence, recombinant membranes
Type in all cases: biochemical
Conditions in all cases: 30 °C; human CPR co-expressed
CYP1B1 = biological target: T1, CYP1B1 (Danio rerio, UniProt Q1JQ70)
T1 sequence (Q1JQ70 1-526): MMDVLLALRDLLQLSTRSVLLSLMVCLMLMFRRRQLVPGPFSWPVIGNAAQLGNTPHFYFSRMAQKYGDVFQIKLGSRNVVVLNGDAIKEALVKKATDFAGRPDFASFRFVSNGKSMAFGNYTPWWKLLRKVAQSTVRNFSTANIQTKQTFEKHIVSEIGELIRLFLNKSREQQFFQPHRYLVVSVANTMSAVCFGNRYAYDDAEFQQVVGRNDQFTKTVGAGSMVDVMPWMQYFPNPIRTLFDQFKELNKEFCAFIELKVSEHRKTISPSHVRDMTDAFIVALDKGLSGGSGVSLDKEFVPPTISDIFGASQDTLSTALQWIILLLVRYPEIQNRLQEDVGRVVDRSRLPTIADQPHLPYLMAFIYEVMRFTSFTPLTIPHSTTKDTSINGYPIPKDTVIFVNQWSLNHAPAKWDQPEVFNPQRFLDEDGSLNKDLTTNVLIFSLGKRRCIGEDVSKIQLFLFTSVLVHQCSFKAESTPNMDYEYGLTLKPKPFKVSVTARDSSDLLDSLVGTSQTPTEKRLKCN

CYP1C1 = biological target: T2, CYP1C1 (Danio rerio, UniProt A0A8M1N631)
T2 sequence (A0A8M1N631 13-523): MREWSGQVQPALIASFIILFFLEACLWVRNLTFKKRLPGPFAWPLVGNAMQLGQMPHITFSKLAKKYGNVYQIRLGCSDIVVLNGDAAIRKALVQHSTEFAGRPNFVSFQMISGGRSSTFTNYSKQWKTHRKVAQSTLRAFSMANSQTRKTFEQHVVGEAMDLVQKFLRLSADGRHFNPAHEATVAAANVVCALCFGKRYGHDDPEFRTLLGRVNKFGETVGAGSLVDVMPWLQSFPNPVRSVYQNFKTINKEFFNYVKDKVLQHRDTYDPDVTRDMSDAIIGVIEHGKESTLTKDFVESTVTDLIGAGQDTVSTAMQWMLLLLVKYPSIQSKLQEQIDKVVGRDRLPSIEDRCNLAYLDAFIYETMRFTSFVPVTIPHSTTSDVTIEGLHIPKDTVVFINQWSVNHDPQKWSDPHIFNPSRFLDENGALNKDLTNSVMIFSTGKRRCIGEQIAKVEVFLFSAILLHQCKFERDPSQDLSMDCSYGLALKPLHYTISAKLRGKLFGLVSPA

CYP1C2 = biological target: T3, CYP1C2 (Danio rerio, UniProt A0AC58HLV5)
T3 sequence (A0AC58HLV5 1-514): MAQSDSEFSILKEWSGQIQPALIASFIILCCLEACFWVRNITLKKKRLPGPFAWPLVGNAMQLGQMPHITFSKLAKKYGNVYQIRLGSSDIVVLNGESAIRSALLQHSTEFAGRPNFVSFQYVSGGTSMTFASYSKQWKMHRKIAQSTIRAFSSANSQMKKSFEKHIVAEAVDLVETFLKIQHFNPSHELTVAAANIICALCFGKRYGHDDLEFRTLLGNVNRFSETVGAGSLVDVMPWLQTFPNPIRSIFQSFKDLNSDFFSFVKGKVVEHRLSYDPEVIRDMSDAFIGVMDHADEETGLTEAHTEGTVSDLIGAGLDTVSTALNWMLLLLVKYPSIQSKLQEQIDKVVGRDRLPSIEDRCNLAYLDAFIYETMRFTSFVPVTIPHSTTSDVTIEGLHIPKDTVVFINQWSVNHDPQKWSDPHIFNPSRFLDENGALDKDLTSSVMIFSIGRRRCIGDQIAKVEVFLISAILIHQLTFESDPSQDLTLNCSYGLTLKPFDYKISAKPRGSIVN

CCOc1ccc2nc3ccc(=O)cc-3oc2c1 [7-ethoxyresorufin]
ethoxyresorufin-O-deethylase fluorescence, recombinant membranes (CYP1B1): All CYP1s showed catalytic activity for 7-ER and BFC except for CYP1D1 and CYP3A65 | ethoxyresorufin-O-deethylase fluorescence, recombinant membranes (CYP1C1): All CYP1s showed catalytic activity for 7-ER and BFC except for CYP1D1 and CYP3A65 | ethoxyresorufin-O-deethylase fluorescence, recombinant membranes (CYP1C2): All CYP1s showed catalytic activity for 7-ER and BFC except for CYP1D1 and CYP3A65

— paper PMC8209656 (The Journal of endocrinology, 2010)
